Details: Liquid

CCn1cc[n+](C)c1.F[B-](F)(F)F [1-ethyl-3-methylimidazolium tetrafluoroborate]
Details | mass density [kg/m3]
293.15 K, 101.33 kPa, Vibrating tube method | 1284.4
313.15 K, 101.33 kPa, Vibrating tube method | 1269.1
313.2 K, 10000 kPa, Bellows volumetry | 1274
313.2 K, 20000 kPa, Bellows volumetry | 1278
313.2 K, 30000 kPa, Bellows volumetry | 1282
313.2 K, 40000 kPa, Bellows volumetry | 1287
313.2 K, 50000 kPa, Bellows volumetry | 1291
313.2 K, 60000 kPa, Bellows volumetry | 1295
313.2 K, 70000 kPa, Bellows volumetry | 1299
313.2 K, 80000 kPa, Bellows volumetry | 1302
313.2 K, 90000 kPa, Bellows volumetry | 1306
313.2 K, 100000 kPa, Bellows volumetry | 1310
313.2 K, 110000 kPa, Bellows volumetry | 1313
313.2 K, 120000 kPa, Bellows volumetry | 1317
313.2 K, 130000 kPa, Bellows volumetry | 1320
313.2 K, 140000 kPa, Bellows volumetry | 1323
313.2 K, 150000 kPa, Bellows volumetry | 1327
313.2 K, 160000 kPa, Bellows volumetry | 1330
313.2 K, 170000 kPa, Bellows volumetry | 1333
313.2 K, 180000 kPa, Bellows volumetry | 1336
313.2 K, 190000 kPa, Bellows volumetry | 1339
313.2 K, 200000 kPa, Bellows volumetry | 1342
332.6 K, 10000 kPa, Bellows volumetry | 1259
332.6 K, 20000 kPa, Bellows volumetry | 1264
332.6 K, 30000 kPa, Bellows volumetry | 1268
332.6 K, 40000 kPa, Bellows volumetry | 1273
332.6 K, 50000 kPa, Bellows volumetry | 1277
332.6 K, 60000 kPa, Bellows volumetry | 1281
332.6 K, 70000 kPa, Bellows volumetry | 1285
332.6 K, 80000 kPa, Bellows volumetry | 1289
332.6 K, 90000 kPa, Bellows volumetry | 1293
332.6 K, 100000 kPa, Bellows volumetry | 1297
332.6 K, 110000 kPa, Bellows volumetry | 1300
332.6 K, 120000 kPa, Bellows volumetry | 1304
332.6 K, 130000 kPa, Bellows volumetry | 1307
332.6 K, 140000 kPa, Bellows volumetry | 1311
332.6 K, 150000 kPa, Bellows volumetry | 1314
332.6 K, 160000 kPa, Bellows volumetry | 1317
332.6 K, 170000 kPa, Bellows volumetry | 1321
332.6 K, 180000 kPa, Bellows volumetry | 1324
332.6 K, 190000 kPa, Bellows volumetry | 1327
332.6 K, 200000 kPa, Bellows volumetry | 1330
333.15 K, 101.33 kPa, Vibrating tube method | 1254
352.7 K, 10000 kPa, Bellows volumetry | 1244
352.7 K, 20000 kPa, Bellows volumetry | 1249
352.7 K, 30000 kPa, Bellows volumetry | 1254
352.7 K, 40000 kPa, Bellows volumetry | 1259
352.7 K, 50000 kPa, Bellows volumetry | 1263
352.7 K, 60000 kPa, Bellows volumetry | 1267
352.7 K, 70000 kPa, Bellows volumetry | 1272
352.7 K, 80000 kPa, Bellows volumetry | 1276
352.7 K, 90000 kPa, Bellows volumetry | 1280
352.7 K, 100000 kPa, Bellows volumetry | 1284
352.7 K, 110000 kPa, Bellows volumetry | 1287
352.7 K, 120000 kPa, Bellows volumetry | 1291
352.7 K, 130000 kPa, Bellows volumetry | 1295
352.7 K, 140000 kPa, Bellows volumetry | 1298
352.7 K, 150000 kPa, Bellows volumetry | 1302
352.7 K, 160000 kPa, Bellows volumetry | 1305
352.7 K, 170000 kPa, Bellows volumetry | 1309
352.7 K, 180000 kPa, Bellows volumetry | 1312
352.7 K, 190000 kPa, Bellows volumetry | 1315
352.7 K, 200000 kPa, Bellows volumetry | 1318
353.15 K, 101.33 kPa, Vibrating tube method | 1239.3
372.8 K, 10000 kPa, Bellows volumetry | 1230
372.8 K, 20000 kPa, Bellows volumetry | 1235
372.8 K, 30000 kPa, Bellows volumetry | 1240
372.8 K, 40000 kPa, Bellows volumetry | 1245
372.8 K, 50000 kPa, Bellows volumetry | 1250
372.8 K, 60000 kPa, Bellows volumetry | 1254
372.8 K, 70000 kPa, Bellows volumetry | 1258
372.8 K, 80000 kPa, Bellows volumetry | 1263
372.8 K, 90000 kPa, Bellows volumetry | 1267
372.8 K, 100000 kPa, Bellows volumetry | 1271
372.8 K, 110000 kPa, Bellows volumetry | 1275
372.8 K, 120000 kPa, Bellows volumetry | 1279
372.8 K, 130000 kPa, Bellows volumetry | 1282
372.8 K, 140000 kPa, Bellows volumetry | 1286
372.8 K, 150000 kPa, Bellows volumetry | 1290
372.8 K, 160000 kPa, Bellows volumetry | 1293
372.8 K, 170000 kPa, Bellows volumetry | 1297
372.8 K, 180000 kPa, Bellows volumetry | 1300
372.8 K, 190000 kPa, Bellows volumetry | 1303
372.8 K, 200000 kPa, Bellows volumetry | 1307
392.9 K, 10000 kPa, Bellows volumetry | 1216
392.9 K, 20000 kPa, Bellows volumetry | 1221
392.9 K, 30000 kPa, Bellows volumetry | 1227
392.9 K, 40000 kPa, Bellows volumetry | 1232
392.9 K, 50000 kPa, Bellows volumetry | 1237
392.9 K, 60000 kPa, Bellows volumetry | 1241
392.9 K, 70000 kPa, Bellows volumetry | 1246
392.9 K, 80000 kPa, Bellows volumetry | 1250
392.9 K, 90000 kPa, Bellows volumetry | 1254
392.9 K, 100000 kPa, Bellows volumetry | 1259
392.9 K, 110000 kPa, Bellows volumetry | 1263
392.9 K, 120000 kPa, Bellows volumetry | 1267
392.9 K, 130000 kPa, Bellows volumetry | 1270
392.9 K, 140000 kPa, Bellows volumetry | 1274
392.9 K, 150000 kPa, Bellows volumetry | 1278
392.9 K, 160000 kPa, Bellows volumetry | 1282
392.9 K, 170000 kPa, Bellows volumetry | 1285
392.9 K, 180000 kPa, Bellows volumetry | 1289
392.9 K, 190000 kPa, Bellows volumetry | 1292
392.9 K, 200000 kPa, Bellows volumetry | 1295
413 K, 10000 kPa, Bellows volumetry | 1202
413 K, 20000 kPa, Bellows volumetry | 1208
413 K, 30000 kPa, Bellows volumetry | 1213
413 K, 40000 kPa, Bellows volumetry | 1219
413 K, 50000 kPa, Bellows volumetry | 1224
413 K, 60000 kPa, Bellows volumetry | 1229
413 K, 70000 kPa, Bellows volumetry | 1233
413 K, 80000 kPa, Bellows volumetry | 1238
413 K, 90000 kPa, Bellows volumetry | 1242
413 K, 100000 kPa, Bellows volumetry | 1247
413 K, 110000 kPa, Bellows volumetry | 1251
413 K, 120000 kPa, Bellows volumetry | 1255
413 K, 130000 kPa, Bellows volumetry | 1259
413 K, 140000 kPa, Bellows volumetry | 1263
413 K, 150000 kPa, Bellows volumetry | 1267
413 K, 160000 kPa, Bellows volumetry | 1270
413 K, 170000 kPa, Bellows volumetry | 1274
413 K, 180000 kPa, Bellows volumetry | 1278
413 K, 190000 kPa, Bellows volumetry | 1281
413 K, 200000 kPa, Bellows volumetry | 1285
432.9 K, 10000 kPa, Bellows volumetry | 1189
432.9 K, 20000 kPa, Bellows volumetry | 1195
432.9 K, 30000 kPa, Bellows volumetry | 1200
432.9 K, 40000 kPa, Bellows volumetry | 1206
432.9 K, 50000 kPa, Bellows volumetry | 1211
432.9 K, 60000 kPa, Bellows volumetry | 1216
432.9 K, 70000 kPa, Bellows volumetry | 1221
432.9 K, 80000 kPa, Bellows volumetry | 1226
432.9 K, 90000 kPa, Bellows volumetry | 1230
432.9 K, 100000 kPa, Bellows volumetry | 1235
432.9 K, 110000 kPa, Bellows volumetry | 1239
432.9 K, 120000 kPa, Bellows volumetry | 1243
432.9 K, 130000 kPa, Bellows volumetry | 1247
432.9 K, 140000 kPa, Bellows volumetry | 1252
432.9 K, 150000 kPa, Bellows volumetry | 1255
432.9 K, 160000 kPa, Bellows volumetry | 1259
432.9 K, 170000 kPa, Bellows volumetry | 1263
432.9 K, 180000 kPa, Bellows volumetry | 1267
432.9 K, 190000 kPa, Bellows volumetry | 1270
432.9 K, 200000 kPa, Bellows volumetry | 1274
452.6 K, 10000 kPa, Bellows volumetry | 1176
452.6 K, 20000 kPa, Bellows volumetry | 1182
452.6 K, 30000 kPa, Bellows volumetry | 1188
452.6 K, 40000 kPa, Bellows volumetry | 1193
452.6 K, 50000 kPa, Bellows volumetry | 1199
452.6 K, 60000 kPa, Bellows volumetry | 1204
452.6 K, 70000 kPa, Bellows volumetry | 1209
452.6 K, 80000 kPa, Bellows volumetry | 1214
452.6 K, 90000 kPa, Bellows volumetry | 1219
452.6 K, 100000 kPa, Bellows volumetry | 1223
452.6 K, 110000 kPa, Bellows volumetry | 1228
452.6 K, 120000 kPa, Bellows volumetry | 1232
452.6 K, 130000 kPa, Bellows volumetry | 1236
452.6 K, 140000 kPa, Bellows volumetry | 1240
452.6 K, 150000 kPa, Bellows volumetry | 1245
452.6 K, 160000 kPa, Bellows volumetry | 1248
452.6 K, 170000 kPa, Bellows volumetry | 1252
452.6 K, 180000 kPa, Bellows volumetry | 1256
452.6 K, 190000 kPa, Bellows volumetry | 1260
452.6 K, 200000 kPa, Bellows volumetry | 1264
472.4 K, 10000 kPa, Bellows volumetry | 1163
472.4 K, 20000 kPa, Bellows volumetry | 1169
472.4 K, 30000 kPa, Bellows volumetry | 1175
472.4 K, 40000 kPa, Bellows volumetry | 1181
472.4 K, 50000 kPa, Bellows volumetry | 1187
472.4 K, 60000 kPa, Bellows volumetry | 1192
472.4 K, 70000 kPa, Bellows volumetry | 1197
472.4 K, 80000 kPa, Bellows volumetry | 1202
472.4 K, 90000 kPa, Bellows volumetry | 1207
472.4 K, 100000 kPa, Bellows volumetry | 1212
472.4 K, 110000 kPa, Bellows volumetry | 1217
472.4 K, 120000 kPa, Bellows volumetry | 1221
472.4 K, 130000 kPa, Bellows volumetry | 1226
472.4 K, 140000 kPa, Bellows volumetry | 1230
472.4 K, 150000 kPa, Bellows volumetry | 1234
472.4 K, 160000 kPa, Bellows volumetry | 1238
472.4 K, 170000 kPa, Bellows volumetry | 1242
472.4 K, 180000 kPa, Bellows volumetry | 1246
472.4 K, 190000 kPa, Bellows volumetry | 1250
472.4 K, 200000 kPa, Bellows volumetry | 1253

Reference: the NIST ThermoML archive (doi:10.1021/je800224k)
